Assay results as given in patent publication US6780431B1, “Substituted benzylthiazolidine-2,4-dione derivatives” (Kyorin Pharmaceutical Co., Ltd., priority 1999, dated 2004).
pEC50: −log10 of the molar value. Like-named read-outs stand apart in the source and are kept apart here.

Tests used:
[1] = biological target: T1, human type PPARα ligand-binding domain fused with yeast transcription factor DNA-binding domain (Homo sapiens, UniProt Q07869); test: Test of transactivation on PPARα (CHO cells, reporter plasmid, CAT activity)
T1 sequence (Q07869 239-466 limits assumed): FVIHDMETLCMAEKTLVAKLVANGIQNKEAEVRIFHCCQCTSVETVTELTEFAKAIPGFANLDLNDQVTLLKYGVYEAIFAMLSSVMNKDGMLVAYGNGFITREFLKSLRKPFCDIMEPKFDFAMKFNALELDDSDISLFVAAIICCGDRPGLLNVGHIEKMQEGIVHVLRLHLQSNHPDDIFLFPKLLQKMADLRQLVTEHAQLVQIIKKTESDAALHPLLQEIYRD
Description: (§1) Test of Transactivation on Peroxisome Proliferator-activated Receptors α and β
(§2) After 24 hours, CAT activity and β-galactosidase activity were measured.

[2] = biological target: T2, human PPARγ ligand-binding domain fused with yeast transcription factor DNA-binding domain (Homo sapiens, UniProt P37231); test: Test of transactivation on PPARγ (CHO cells, reporter plasmid, CAT activity)
T2 sequence (P37231 238-503 limits assumed): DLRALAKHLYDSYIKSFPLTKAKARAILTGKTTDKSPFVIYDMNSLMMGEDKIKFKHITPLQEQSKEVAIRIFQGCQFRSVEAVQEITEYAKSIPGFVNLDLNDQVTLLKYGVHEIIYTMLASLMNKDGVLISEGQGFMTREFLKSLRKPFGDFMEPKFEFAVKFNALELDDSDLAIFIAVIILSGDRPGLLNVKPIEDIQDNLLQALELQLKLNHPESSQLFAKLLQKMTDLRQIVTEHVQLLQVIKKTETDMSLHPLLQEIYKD
Description: as §1, §2

Row | melting point [°C] | pEC50 [1] | pEC50 [2] | pEC50 ([1]; read-out: Transactivation PPARα EC50, CHO cells, 24 hours, CAT activity with β-galactosidase internal standard) | Compound
1 | 236.5 to 238.5 | 6.28 | 5.80 | – | COc1ccc(CC2SC(=O)NC2=O)cc1C(=O)NCc1ccc([N+](=O)[O-])cc1 (stereo not drawn) [Example 1, N-[(4-Nitrophenyl)methyl]-5-[(2,4-dioxothiazolidin-5-yl)methyl]-2-methoxybenzamide]
2 | – | – | – | 5.89 | CCCCC/C=C\C/C=C\C=C\[C@@H](O)C/C=C\CCCC(=O)O [(8S)-HETE, reference compound]
3 | 199 to 201 | 6.59 | 6.40 | – | COc1ccc(CC2SC(=O)NC2=O)cc1C(=O)NCc1ccc(Cl)cc1 (stereo not drawn) [Example 3]
4 | 130 to 132 | 6.37 | 6.52 | – | CCOc1ccc(CNC(=O)c2cc(CC3SC(=O)NC3=O)ccc2OC)cc1 (stereo not drawn) [Example 5]
5 | – | 6.12 | 6.96 | – | COc1ccc(CC2SC(=O)NC2=O)cc1C(=O)NCc1ccc(OC(C)C)cc1 (stereo not drawn) [Example 6]
6 | 198 to 200 | 6.31 | 6.54 | – | COc1ccc(CC2SC(=O)NC2=O)cc1C(=O)NCc1ccc(Br)cc1 (stereo not drawn) [Example 2]
7 | – | 6.15 | 5.96 | – | COc1ccc(CC2SC(=O)NC2=O)cc1C(=O)NCc1ccc(Cl)c(Cl)c1 (stereo not drawn) [Example 9]
8 | 188 to 189 | – | – | – | COc1ccc(CC2SC(=O)NC2=O)cc1C(=O)NCc1ccc(Cl)cc1Cl (stereo not drawn) (hydrate or solvate) [Example 8]
9 | 79 to 81.5 | – | – | – | COc1ccc(CC2SC(=O)NC2=O)cc1C(=O)NCc1ccc(OC(C)C)cc1 (stereo not drawn) (hydrate or solvate) [Example 6]
10 | 181 to 182 | – | – | – | COc1ccc(CC2SC(=O)NC2=O)cc1C(=O)NCc1ccc(Cl)c(Cl)c1 (stereo not drawn) (hydrate or solvate) [Example 9]
11 | – | 6.74 | 6.44 | – | COc1ccc(CC2SC(=O)NC2=O)cc1C(=O)NCc1cccc(OC(F)(F)F)c1 (stereo not drawn) [Example 4]
12 | 132 to 133 | – | – | – | CCCOc1ccc(CNC(=O)c2cc(CC3SC(=O)NC3=O)ccc2OC)cc1 (stereo not drawn) (hydrate or solvate) [Example 7]
13 | – | 6.66 | 6.55 | – | COc1ccc(CC2SC(=O)NC2=O)cc1C(=O)NCc1ccc(Cl)cc1Cl (stereo not drawn) [Example 8]
14 | – | 6.96 | 5.74 | – | CCCOc1ccc(CNC(=O)c2cc(CC3SC(=O)NC3=O)ccc2OC)cc1 (stereo not drawn) [Example 7]
